Columns and labels:
[1] = test system: C3H/10T1/2 cells; assay: Oil red O staining of C3H/10T1/2 cells; assay type: cell-based, mouse; details: for Experiment A (+BRL) % differentiated cells / Experiment B (+BRL + Insulin) % differentiated cells: 7 days; for effect on differentiation induced by BRL 49653 or BRL/insulin: in combination with BRL 49653
[2] = test system: 3T3-LI cells; assay: Oil red O staining of differentiating 3T3-LI adipocytes; assay type: cell-based, mouse; details: for Percent of Differentiated Cells: 3T3-L1, BRL 49653 and LG 100268 at 1 μM; for Percent of Differentiated Cells / cells induced to differentiate into adipocytes: insulin at 0.01 mg/ml; for cells induced to differentiate into adipocytes: BRL 49653 and retinoid at 1 μM
Text: They are contact inhibited and can be induced to differentiate into adipocyte cells containing large lipid droplets within the cytoplasm. Adipocyte differentiation can be observed by oil red O staining which stains the lipid droplets within the cytoplasm red. The extent of adipocyte differentiation can then be monitored by microscope observation.

[3] = test system: LPL (lipoprotein lipase) mRNA and PPARγ mRNA; assay: Northern blot analysis of adipocyte specific genes in 3T3-LI cells; assay type: cell-based, mouse; details: 3T3-LI treated for 7 days; BRL 49653 1 μM, LG 100268 1 μM, insulin 0.01 mg/ml
Protocol: A third measure of adipocyte differentiation is to examine regulation of gene expression. […] Northern blot analysis was used to dissect the molecular aspects of how retinoids effect target genes of differentiating adipocytes. PPARγ, lipoprotein lipase (LPL), and β-actin (loading control) mRNA levels were monitored after cells were treated with thiazolidinediones and retinoids.
Adipocyte specific genes were monitored via northern blot analysis.

[4] = test system: 3T3-LI cells; assay: 96-well plate triglyceride accumulation assay in differentiating adipocytes; assay type: cell-based, mouse; details: for triglyceride accumulation: retinoids and BRL 49653 at 1 μM, insulin at 0.01 mg/ml, alone or all together; for triglyceride accumulation on addition of retinoid with BRL 49653: retinoid 1 μM with BRL 49653 1 μM
Text: For a more quantitative assay and rapid screening of compounds, a 96-well plate assay was developed to quantitate the amount of triglyceride produced by the differentiating adipocytes. […] The level of triglyceride accumulation can then be measured via an enzymatic color reaction which can be read in a plate reader. The retinoid modulation of lipid formation was quantitated by monitoring triglyceride formation.

[5] = test system: db/db mice; assay: In vivo experiment with db/db mice; details: for increase of HDL-cholesterol levels in comparison to controls: BRL 49653, or combination, terminal serum, precipitation method; for lowering of the level of glucose in comparison to control: BRL 49653 1 mg/kg, LG 100268 20 mg/kg, or combination
Protocol: Animals: Strain Diabetic C57BLKS/Jm+/+db, 82 mice
Mice were identified by an ear punch code (#1-82) and separated into 8 groups (A-H). Each group consisted of 10 mice separated into 4 cages with 2-3 mice/cage. […] Control group C consisted of 12 mice. […] Food and water were provided ad libitum. Food intake/cage was measured over selected periods and expressed as g food consumed/100 g mouse/day.
(§1) On days of study, food was removed from the cages at selected intervals of time between 6:15 and 7:00 AM. Animal weights were recorded 2 h after start of fast and blood samples taken after a 3 h fast. Blood was drawn from a cut at the tip of the tail and collected into a heparinized capillary tube (approx. 75 μl volume). After centrifugation, the hematocrit was read in a microcapillary reader, recorded and the tube broken for recovery of plasma for analysis of glucose, triglyceride and insulin concentration.
Blood samples were collected on days 0−1,0, 3, 7, 10, and on the final day of study, days 13-15. […] The various solutions were gavaged daily to their respective groups based on the animals weight taken that morning or the weight of the animal taken on the preceding day of weighing. To assess alterations in plasma FFA, on day 10 an addition 75 μl blood sample was collected into an EDTA-coated capillary tube immediately after collecting the basal heparinized capillary tube sample.
On the final day of study, mice were not gavaged with test solution. The last gavage was administered on the day preceding the final day, i.e., day 12 for animals terminated on day 13, day 13 for animals terminated on day 14 and day 14 for animals terminated on day 15. Terminal blood was collected by decapitation to provide serum for assessment of HDL.

[6] = test system: 3T3-L1 cells; assay: Insulin stimulated labeled 2-deoxyglucose uptake assay; assay type: cell-based, mouse; details: 3T3-L1 treated 10 days; BRL 49653 or LG 100268 (1 μM); insulin 0.01 mg/ml for 5 days; normalized to total cellular protein
Protocol: A fourth indicator for the utility of a compound in treating NIDDM or insulin-resistant diabetes is the compound's, ability to enhance insulin-stimulated glucose uptake. Labeled 2-deoxyglucose (2-DOG, a glucose analog) assay was performed with a preadipocyte cell line in the presence of insulin and a candidate compound to measure the level of 2-DOG incorporation.
A murine preadipocyte cell line, 3T3-L1, is widely used to study glucose uptake, adipogenesis, and has been used in the characterization of thiazolidinediones and other PPARγ activators.
Insulin was added to the cells at a concentration of 0.01 mg/ml for 5 days, thereafter no insulin was added. […] The level of incorporated labeled 2-DOG was normalized to the amount of total cellular protein.

[7] = test system: ob/ob mice; assay: In vivo experiment with ob/ob mice; details: mouse
Protocol: Each group consisting of 10 mice.
as §1
Blood samples were collected on days 0−3, 0, 3, 6, 8, 10, 14±1 and final collections were made on days 15, 16 or 17. FFA samples were collected on day 10 by drawing a second 75 μl blood sample in a non-heparinized tube coated with EDTA. This tube was collected immediately after the heparinized tube collection.
Animals in groups H were administered control gavage solution (0.6 ml/42 g) daily commencing on day 0 and ending on the day preceding the final day. 11 test solutions were administered to animals in groups designated A-G, I-L. All gavage solutions were administered after refeeding on days in which mice were fasted for blood sampling.

[8] = BRL 0.1 μM alone or plus ALRT 1057 1 μM, LGD 1069 1 μM or TTNPB 10 nM
[9] = BRL 10 μM + insulin 0.01 mg/ml, alone or plus ALRT 1057 1 μM, LGD 1069 1 μM or TTNPB 10 nM
[10] = BRL 10 μM alone or plus ALRT 1057 1 μM, LGD 1069 1 μM or TTNPB 10 nM
[11] = middle group r17-r20, headed BRL (0.1 μM), + insulin 0.01 mg/ml, alone or plus ALRT 1057 1 μM, LGD 1069 1 μM or TTNPB 10 nM
[12] = middle group r17-r20, headed BRL (0.1 μM), alone or plus ALRT 1057 1 μM, LGD 1069 1 μM or TTNPB 10 nM
[13] = BRL 0.1 μM + insulin 0.01 mg/ml, alone or plus ALRT 1057 1 μM or LGD 1069 1 μM

Row | Compound | Experiment A (+BRL) % differentiated cells [1, 8] [%] | Experiment B (+BRL + Insulin) % differentiated cells [1, 9] [%] | Experiment A (+BRL) % differentiated cells [1, 10] [%] | effect on differentiation induced by BRL 49653 or BRL/insulin [1] | Experiment B (+BRL + Insulin) % differentiated cells [1, 11] [%] | Experiment A (+BRL) % differentiated cells [1, 12] [%] | amount of adipocyte differentiation when used in combination with BRL 49653 ([2]; 3T3-LI) | Experiment B (+BRL + Insulin) % differentiated cells [1, 13] [%] | Percent of Differentiated Cells [2] [%] | LPL and PPARγ mRNA levels, relative signal normalized to β-actin [3] | triglyceride accumulation [4] | triglyceride accumulation on addition of retinoid with BRL 49653 [4] | cells induced to differentiate into adipocytes ([2]; 3T3-LI) [%] | lipid droplets within the cytoplasm ([2]; 3T3-LI, LG 100268 at 1 μM) | increase of HDL-cholesterol levels in comparison to controls ([5]; LG 100268 20 mg/kg) | lowering of the level of glucose in comparison to control ([5]; daily gavage, by day 15) [%] | lowering of the level of triglycerides ([5]; daily gavage, LG 100268 20 mg/kg, BRL 49653 1 mg/kg, or combination, by day 15) [%] | increase in 2-DOG uptake [6] | lowering of the level of glucose in comparison to control [7] [%]
1 | C/C(=C\c1ccc(C(=O)O)cc1)c1ccc2c(c1)C(C)(C)CCC2(C)C [TTNPB, reference compound] | 0.2 | 50 | 5 | inhibited the differentiation | 30 | 2 | – | – | – | – | – | – | – | – | – | – | – | – | –
2 | CC1=C(/C=C/C(C)=C\C=C\C(C)=C\C(=O)O)C(C)(C)CCC1 [ALRT 1057, 9-cis retinoic acid] | 45 | 99 | 80 | large increase in the amount of differentiation | 90 | 65 | increased the amount of differentiation | 65 | – | – | – | – | – | – | – | – | – | – | –
3 | Insulin: insulin, used at 0.01 mg/ml | – | – | – | – | – | – | – | – | 20 | three to five fold increase | induced some triglyceride accumulation | – | – | – | – | – | – | – | –
4 | C=C(c1ccc(C(=O)O)cc1)c1cc2c(cc1C)C(C)(C)CCC2(C)C [LGD 1069] | 45 | 99 | 80 | large increase in the amount of differentiation | 90 | 65 | increased the amount of differentiation | 90 | – | – | – | increased the amount of triglyceride accumulation | – | – | – | – | – | – | –
5 | Cc1cc2c(cc1C1(c3ccc(C(=O)O)cn3)CC1)C(C)(C)CCC2(C)C [LG 100268, 2-[1-(3,5,5,8,8-pentamethyl-5,6,7,8-tetrahydro-2-naphthyl)-cyclopropyl]-pyridine-5-carboxylic acid] | – | – | – | – | – | – | increased dramatically | – | 50 | – | largest response | increased the amount of triglyceride accumulation | 50 | bigger redder lipid droplets | 20% | 40 | 46 | About 2 fold | ~50
6 | CN(CCOc1ccc(CC2SC(=O)NC2=O)cc1)c1ccccn1 (stereo not shown) [BRL 49653, 5-[[4-[2-(methyl-2-pyridinylamino)ethoxy]phenyl]methyl]-2,4-thiazolidinedione, reference compound] | – | – | – | – | – | – | – | – | 50 | – | induced some triglyceride accumulation | – | 50 | – | equivalent level of increase | 40 | – | About 5 fold | –

Source: patent publication US6521633B2, “Treating NIDDM with RXR agonists” (Ligand Pharmaceuticals Incorporated, priority 1995, dated 2003)
